Source: patent US20080275002A1, “Method for Treatment of Hepatic Cancer” (TAIHO PHARMACEUTICAL CO., LTD., priority 2005, published 2008)

How the values were obtained:
hepatic cancer = conditions: animal model of hepatic cancer; cited from earlier work
[1] = test system: advanced hepatocellular carcinoma; assay: Clinical study (Phase I/II) of oral TAC-101 in patients with advanced hepatocellular carcinoma; assay type: in vivo
Description: Administrations were continued for patients without dose-limiting toxicities (DLT) and without aggravation of the cancer. […] Patients administered with the recommended dose in Phase I part were subjected to data analysis under assumption as Phase II part patients.
Specifically, after determination of the measurable lesions in each patient, the response was classified as complete response (CR), partial response (PR), minor response (MR), stabilization of the disease (SD), or progression of the disease (PD) for the efficacy evaluation.

lung cancer = conditions: high dose, 60 to 80 mg/day, patients with lung cancer; cited from earlier work
[2] = molecular target: T1, retinoic acid receptor α (RAR-α) (Homo sapiens, UniProt P10276); conditions: activates transcription through the receptor; cited from earlier work
T1 sequence (P10276 1-462): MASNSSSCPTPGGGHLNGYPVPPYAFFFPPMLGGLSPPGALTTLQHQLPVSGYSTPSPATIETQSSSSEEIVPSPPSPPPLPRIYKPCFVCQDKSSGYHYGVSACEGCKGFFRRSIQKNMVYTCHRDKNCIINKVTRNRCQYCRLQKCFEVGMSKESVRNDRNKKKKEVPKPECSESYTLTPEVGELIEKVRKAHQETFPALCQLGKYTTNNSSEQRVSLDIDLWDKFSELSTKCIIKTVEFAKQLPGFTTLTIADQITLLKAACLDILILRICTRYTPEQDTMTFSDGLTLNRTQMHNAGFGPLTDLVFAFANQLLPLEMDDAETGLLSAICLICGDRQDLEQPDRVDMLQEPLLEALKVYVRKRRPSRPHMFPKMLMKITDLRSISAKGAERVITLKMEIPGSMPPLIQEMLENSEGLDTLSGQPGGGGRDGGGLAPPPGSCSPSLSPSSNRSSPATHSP

[3] = 20 mg/day, side effects approximately grade 2

## C[Si](C)(C)c1cc(C(=O)Nc2ccc(C(=O)O)cc2)cc([Si](C)(C)C)c1 [TAC-101, 4-[3,5-Bis(trimethylsilyl)benzamido]benzoic acid]
Hepatic cancer
  antitumor effects: demonstrated
[1]; 20 mg/day
  therapy terminated because of grade 3 increase of aspartate aminotransferase (AST): one
  therapy terminated because of onset of grade 3 venous thrombosis embolism (VTE): one
  therapy terminated because of onset of grade 4 pulmonary embolism (PE): one
[1]; 20 mg/day oral, among 7 patients, pancreatitis and fatigue
  patients developing dose-limiting toxicity (DLT): one
[1]; 20 mg/day, 9/21
  share of patients with TTF 12 weeks or longer: 42%
[1]; 20 mg/day, 21 evaluable patients
  PR or CR case (WHO criteria): not observed
[1]; 20 mg/day, all 21 patients
  time to treatment failure (TTF): 6.6 weeks
[1]; 20 mg/day, of 21 evaluable patients
  patients to whom four or more courses were applicable, progress of the hepatic cancer significantly arrested: 9 patients
[1]; 20 mg/day, of 21 patients
  patients with TTF 12 weeks or longer (progress arrested, no deterioration): 9 patients
[1]; [3]
  AST increase, incidence: 14.3%
  AST increase, number of patients: 4 patients
  alanine aminotransferase (ALT), incidence: 14.3%
  alanine aminotransferase (ALT), number of patients: 4 patients
  anorexia, incidence: 10.7%
  anorexia, number of patients: 3 patients
  dermatitis, incidence: 21.4%
  dermatitis, number of patients: 6 patients
  fatigue, incidence: 32%
  fatigue, number of patients: 9 patients
  increased triglycerides, incidence: 28.6%
  increased triglycerides, number of patients: 8 patients
  myalgias, incidence: 28.6%
  myalgias, number of patients: 8 patients
  nausea, incidence: 14.3%
  nausea, number of patients: 4 patients
[1]; 14 days daily oral administration, 7 days withdrawal
  maximum tolerance dose (MTD): 20 mg/day
Lung cancer
  deep vein thrombosis (DVT), dose-limiting toxicity: frequently induces deep vein thrombosis
  tumor response: tumor reducing effects (PR and CR)
[2]
  binding to RAR-α: binding selectively
